Data taken from PubChem BioAssay (NCI).
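1) Cells in 96-well plates. 2) Compound, 48 h, 5 concentrations. 3) Linear interpolation between surrounding doses. 4) Unreached endpoint = highest concentration. At the GI50, growth is halved. TGI: total growth inhibition.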

How the values were obtained:
Experiment in all cases: NCI anticancer screen, dose series, 48 h
[1] = test system: SNB-78 CNS
[2] = test system: RXF 393 renal
[3] = test system: SK-MEL-28 melanoma
[4] = test system: SK-MEL-5 melanoma
[5] = test system: A549 NSCLC
[6] = test system: DMS 114 small cell lung
[7] = test system: SN12C renal
[8] = test system: OVCAR-3 ovarian
[9] = test system: HCT-15 colon
[10] = test system: MCF7 breast

SMILES	TGI [1] [µM]	TGI [2] [µM]	TGI [3] [µM]	TGI [4] [µM]	TGI [5] [µM]	TGI [6] [µM]	TGI [7] [µM]	TGI [8] [µM]	TGI [9] [µM]	TGI [10] [µM]	GI50 [1] [µM]	GI50 [2] [µM]	GI50 [3] [µM]	GI50 [4] [µM]	GI50 [5] [µM]	GI50 [6] [µM]	GI50 [7] [µM]	GI50 [8] [µM]	GI50 [9] [µM]
COC(=O)C#CCC1CCCC1C1SCCS1 (stereo unspecified)	> 100	> 100	> 100	> 100	> 100	> 100	> 100	> 100											
O=C(COc1ccc(Cl)cc1)N1CCN(C(=O)COc2ccc(Cl)cc2)c2ccccc21	> 100	> 100	> 100		> 100	> 100		> 100											
O=C(NCC(=O)N1CCOC1=O)OCc1ccccc1	> 100	> 100	> 100	> 100	> 100	> 100	> 100	> 100	> 100										
CCCCCCCCCCCCCP(=O)(NCC(N)=O)OCC (stereo unspecified)	41.2	37.7	32.3	35.3	40.7	33.4	34.3	28.9	36										
O=C(CCc1nc(=S)[nH][nH]1)Nc1cccc(C(F)(F)F)c1	> 100	> 100	> 100	> 100	> 100	> 100	> 100	> 100	> 100										
O=C(O)COc1ccc(C(=O)/C(SS/C(C(=O)c2ccc(OCC(=O)O)c(Cl)c2Cl)=C2\C=C(c3ccc(Br)cc3)SS2)=C2/C=C(c3ccc(Br)cc3)SS2)c(Cl)c1Cl	36.5		> 100	43.1	> 100	6.76	> 100	21.7	> 40.9	13.2									
CC(=O)NNc1nc(C)c(C(=O)/C=C/c2ccc(/C=C/C(=O)c3sc(NNC(C)=O)nc3C)cc2)s1	> 100	> 100	> 100		> 100	> 100	> 100	> 100	> 100										
CN1CCc2c1nc(-c1cccnc1)c1c2N(C)CC1	> 100	> 100		> 100	> 100	> 100	> 100	> 100	> 100										
COCCOCOC(C)(C)[C@H](CCOC(C)=O)O[Si](c1ccccc1)(c1ccccc1)C(C)(C)C	97.4	45.7	> 100	23.7	> 100	55.4	29.5	53.6	> 100										
COc1cc(/C=C\c2ccncc2)cc(OC)c1OC	> 100	> 100	> 100	> 100	> 100	> 100	> 100	> 100	> 100										
O=C(N/C(=C\c1cc(Cl)ccc1Cl)c1nc2ccc(Cl)cc2[nH]1)c1ccccc1	54.8	29.2	32.4	25.9	38.1	29.8	34	35.1	31										
CC(=O)[CH-]C(=O)Nc1ccccc1.CC(=O)[CH-]C(=O)Nc1ccccc1.CC[O-].CC[O-].[Ti+4]	> 100	> 100	> 100	> 100	> 100	> 100	> 100	> 100	> 100		> 100	> 100	> 100	> 100	> 100	> 100	> 100	> 100	> 100
C#C[C@H]1CCCCCC1O (stereo partly specified)	> 100	> 100	> 100	> 100	> 100	> 100	> 100	> 100	> 100										
Cc1nc2c(sc(=S)n2-c2ccccc2)c2nc3ccccc3n12	> 100	> 100	> 100			> 100	> 100	> 100	> 100										
Nc1ncnc2c1nnn2C1C=C(CO)C(O)C1O (stereo unspecified)	> 100	> 100	> 100	> 100	> 100	> 86.2	> 82.7	> 100	> 100										
COC/N=C(/N)NC#N	> 100	> 100	> 100	> 100	> 100	37.6	> 100	> 100	31										
NC(=O)C12CC3CC(CC(Br)(C3)C1)C2	> 100		> 100	> 100	> 100	> 100	> 100	> 100	> 100										
CCC[CH2][Sn]([CH2]CCC)([O]C(=O)/C=C/c1ccccc1F)[O]C(=O)/C=C/c1ccccc1F	1.7	0.95	1.29	2.31	3.91	1.46	2.29	2.31	1.95		0.452	0.256	0.328	0.985	1.88	0.445	1.03	1.07	0.74
